Our source for the Kd values is ChEMBL document CHEMBL5150074, “Structure-Based Design of a Dual-Targeted Covalent Inhibitor Against Papain-like and Main Proteases of SARS-CoV-2” (J Med Chem, 2022).

Experiment [1] in a line: Binding affinity to SARS-CoV-2 PLpro C111A mutant assessed as dissociation constant by isothermal titration calorimetry assay. Further details: species or system Severe acute respiratory syndrome coronavirus 2. On the technique in general: ITC needs no label: the signal is the heat of the interaction.
A short description of experiment [2]: Binding affinity to SARS-CoV-2 MPro C145A mutant assessed as dissociation constant by isothermal titration calorimetry assay. Further details: species or system Severe acute respiratory syndrome coronavirus 2.

By Kd is commonly meant the free concentration of one partner at which half of the binding sites on the other are occupied at equilibrium, for simple one-to-one binding. `Cl.O=C1C=C(Nc2ccccc2N2CCNCC2)C2=NS(=O)(=O)c3cccc1c32`: the Kd in experiment [1] came to 2300 nM; in experiment [2], 1500 nM.
